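Each compound was tested at five concentrations against cells in 96-well plates for 48 hours. The concentration for full growth arrest is given as TGI.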
What was measured:
Assay in all cases: growth of human tumour cells (NCI), 48 h
COLO 205 colon = test system: COLO 205 colon
NCI-H522 lung = test system: NCI-H522 lung
OVCAR-3 ovarian = test system: OVCAR-3 ovarian
SN12C renal = test system: SN12C renal
BT-549 breast = test system: BT-549 breast
MDA-N = test system: MDA-N
HCT-15 colon = test system: HCT-15 colon
NCI-H23 lung = test system: NCI-H23 lung
DU-145 prostate = test system: DU-145 prostate
T-47D breast = test system: T-47D breast
HL-60(TB) leukemia = test system: HL-60(TB) leukemia
PC-3 prostate = test system: PC-3 prostate
MDA-MB-435 = test system: MDA-MB-435
SK-MEL-28 melanoma = test system: SK-MEL-28 melanoma
IGROV1 ovarian = test system: IGROV1 ovarian
RXF 393 renal = test system: RXF 393 renal
K-562 leukemia = test system: K-562 leukemia
SK-MEL-2 melanoma = test system: SK-MEL-2 melanoma
OVCAR-5 ovarian = test system: OVCAR-5 ovarian
786-0 renal = test system: 786-0 renal
NCI/ADR-RES ovarian = test system: NCI/ADR-RES ovarian
MCF7 breast = test system: MCF7 breast
SK-OV-3 ovarian = test system: SK-OV-3 ovarian
UO-31 renal = test system: UO-31 renal
CCRF-CEM leukemia = test system: CCRF-CEM leukemia
UACC-62 melanoma = test system: UACC-62 melanoma
SF-539 CNS = test system: SF-539 CNS
TK-10 renal = test system: TK-10 renal
MDA-MB-231 breast = test system: MDA-MB-231 breast
LOX IMVI melanoma = test system: LOX IMVI melanoma
HT29 colon = test system: HT29 colon
OVCAR-8 ovarian = test system: OVCAR-8 ovarian
A549 NSCLC = test system: A549 NSCLC
SR leukemia = test system: SR leukemia
HOP-92 NSCLC = test system: HOP-92 NSCLC
SF-268 CNS = test system: SF-268 CNS
SNB-75 CNS = test system: SNB-75 CNS
EKVX NSCLC = test system: EKVX NSCLC
HOP-62 NSCLC = test system: HOP-62 NSCLC
UACC-257 melanoma = test system: UACC-257 melanoma
KM12 colon = test system: KM12 colon
SW-620 colon = test system: SW-620 colon
SNB-19 CNS = test system: SNB-19 CNS
HCT-116 colon = test system: HCT-116 colon
MALME-3M melanoma = test system: MALME-3M melanoma
M14 melanoma = test system: M14 melanoma
RPMI-8226 leukemia = test system: RPMI-8226 leukemia
CAKI-1 renal = test system: CAKI-1 renal
SK-MEL-5 melanoma = test system: SK-MEL-5 melanoma
HS 578T breast = test system: HS 578T breast
U251 CNS = test system: U251 CNS
NCI-H226 lung = test system: NCI-H226 lung
MOLT-4 leukemia = test system: MOLT-4 leukemia
SF-295 CNS = test system: SF-295 CNS
A498 renal = test system: A498 renal
OVCAR-4 ovarian = test system: OVCAR-4 ovarian
ACHN renal = test system: ACHN renal
NCI-H460 lung = test system: NCI-H460 lung

CC(NC(=O)CNP(=O)(c1ccccc1)c1ccccc1)C(=O)NC(Cc1ccccc1)C(=O)OCc1ccccc1 (stereo not drawn)
TGI (COLO 205 colon): > 10 µM | TGI (NCI-H522 lung): 49.8 µM | TGI (OVCAR-3 ovarian): > 100 µM | TGI (SN12C renal): > 100 µM | TGI (BT-549 breast): > 100 µM | TGI (MDA-N): > 100 µM | TGI (HCT-15 colon): > 100 µM | TGI (NCI-H23 lung): > 100 µM | TGI (DU-145 prostate): > 100 µM | TGI (T-47D breast): > 100 µM | TGI (HL-60(TB) leukemia): > 100 µM | TGI (PC-3 prostate): > 100 µM | TGI (MDA-MB-435): > 100 µM | TGI (SK-MEL-28 melanoma): 49.3 µM | TGI (IGROV1 ovarian): > 100 µM | TGI (RXF 393 renal): 75.5 µM | TGI (K-562 leukemia): > 10 µM | TGI (SK-MEL-2 melanoma): > 100 µM | TGI (OVCAR-5 ovarian): > 100 µM | TGI (786-0 renal): 48.1 µM | TGI (NCI/ADR-RES ovarian): > 100 µM | TGI (MCF7 breast): 55 µM | TGI (SK-OV-3 ovarian): 51.3 µM | TGI (UO-31 renal): > 100 µM | TGI (CCRF-CEM leukemia): > 10 µM | TGI (UACC-62 melanoma): > 100 µM | TGI (SF-539 CNS): > 100 µM | TGI (TK-10 renal): > 100 µM | TGI (MDA-MB-231 breast): 96.6 µM | TGI (LOX IMVI melanoma): 87.8 µM | TGI (HT29 colon): > 100 µM | TGI (OVCAR-8 ovarian): > 100 µM | TGI (A549 NSCLC): > 100 µM | TGI (SR leukemia): 70.8 µM | TGI (HOP-92 NSCLC): > 100 µM | TGI (SF-268 CNS): 57.2 µM | TGI (SNB-75 CNS): 48.5 µM | TGI (EKVX NSCLC): > 100 µM | TGI (HOP-62 NSCLC): > 100 µM | TGI (UACC-257 melanoma): > 100 µM | TGI (KM12 colon): > 100 µM | TGI (SW-620 colon): > 100 µM | TGI (SNB-19 CNS): > 100 µM | TGI (HCT-116 colon): > 100 µM | TGI (MALME-3M melanoma): > 100 µM | TGI (M14 melanoma): > 100 µM | TGI (RPMI-8226 leukemia): 98.5 µM | TGI (CAKI-1 renal): > 100 µM | TGI (SK-MEL-5 melanoma): 60.5 µM | TGI (HS 578T breast): > 100 µM | TGI (U251 CNS): 62.3 µM | TGI (NCI-H226 lung): > 100 µM | TGI (MOLT-4 leukemia): 47.1 µM | TGI (SF-295 CNS): 42.5 µM | TGI (A498 renal): > 100 µM

O=C1Nc2ccccc2S/C1=C\c1ccc(C(F)(F)F)cc1
TGI (COLO 205 colon): > 100 µM | TGI (NCI-H522 lung): > 100 µM | TGI (OVCAR-3 ovarian): > 100 µM | TGI (SN12C renal): > 100 µM | TGI (BT-549 breast): > 100 µM | TGI (MDA-N): > 100 µM | TGI (HCT-15 colon): > 100 µM | TGI (OVCAR-4 ovarian): > 100 µM | TGI (DU-145 prostate): > 100 µM | TGI (T-47D breast): > 100 µM | TGI (HL-60(TB) leukemia): > 100 µM | TGI (PC-3 prostate): > 100 µM | TGI (MDA-MB-435): > 100 µM | TGI (SK-MEL-28 melanoma): > 100 µM | TGI (IGROV1 ovarian): > 100 µM | TGI (RXF 393 renal): > 100 µM | TGI (K-562 leukemia): > 100 µM | TGI (SK-MEL-2 melanoma): > 100 µM | TGI (OVCAR-5 ovarian): > 100 µM | TGI (786-0 renal): > 100 µM | TGI (NCI/ADR-RES ovarian): > 100 µM | TGI (MCF7 breast): > 100 µM | TGI (SK-OV-3 ovarian): > 100 µM | TGI (UO-31 renal): > 100 µM | TGI (ACHN renal): > 100 µM | TGI (UACC-62 melanoma): > 100 µM | TGI (SF-539 CNS): > 100 µM | TGI (TK-10 renal): > 100 µM | TGI (MDA-MB-231 breast): > 100 µM | TGI (LOX IMVI melanoma): > 100 µM | TGI (HT29 colon): > 100 µM | TGI (OVCAR-8 ovarian): > 100 µM | TGI (A549 NSCLC): > 100 µM | TGI (SR leukemia): > 100 µM | TGI (HOP-92 NSCLC): > 100 µM | TGI (SF-268 CNS): > 100 µM | TGI (SNB-75 CNS): > 100 µM | TGI (EKVX NSCLC): > 100 µM | TGI (HOP-62 NSCLC): > 100 µM | TGI (UACC-257 melanoma): > 100 µM | TGI (KM12 colon): > 100 µM | TGI (SW-620 colon): > 100 µM | TGI (SNB-19 CNS): > 100 µM | TGI (HCT-116 colon): > 100 µM | TGI (NCI-H460 lung): > 100 µM | TGI (MALME-3M melanoma): > 100 µM | TGI (M14 melanoma): > 100 µM | TGI (RPMI-8226 leukemia): > 100 µM | TGI (CAKI-1 renal): 93.3 µM | TGI (SK-MEL-5 melanoma): > 100 µM | TGI (HS 578T breast): > 100 µM | TGI (U251 CNS): > 100 µM | TGI (NCI-H226 lung): > 100 µM | TGI (MOLT-4 leukemia): > 100 µM | TGI (SF-295 CNS): > 100 µM | TGI (A498 renal): > 100 µM

Clc1cccc(Cl)c1C(Nc1nncs1)Nc1nncs1
TGI (COLO 205 colon): > 100 µM | TGI (NCI-H522 lung): 70.9 µM | TGI (OVCAR-3 ovarian): > 100 µM | TGI (SN12C renal): > 100 µM | TGI (BT-549 breast): > 100 µM | TGI (MDA-N): 25.5 µM | TGI (HCT-15 colon): > 100 µM | TGI (NCI-H23 lung): > 100 µM | TGI (OVCAR-4 ovarian): > 100 µM | TGI (DU-145 prostate): > 100 µM | TGI (T-47D breast): > 100 µM | TGI (HL-60(TB) leukemia): 43.9 µM | TGI (PC-3 prostate): > 100 µM | TGI (MDA-MB-435): 60.6 µM | TGI (SK-MEL-28 melanoma): 54.5 µM | TGI (IGROV1 ovarian): > 100 µM | TGI (RXF 393 renal): > 100 µM | TGI (K-562 leukemia): > 100 µM | TGI (SK-MEL-2 melanoma): > 100 µM | TGI (OVCAR-5 ovarian): > 100 µM | TGI (786-0 renal): > 100 µM | TGI (NCI/ADR-RES ovarian): > 100 µM | TGI (MCF7 breast): > 100 µM | TGI (SK-OV-3 ovarian): > 100 µM | TGI (UO-31 renal): > 100 µM | TGI (ACHN renal): > 100 µM | TGI (UACC-62 melanoma): > 100 µM | TGI (SF-539 CNS): > 100 µM | TGI (TK-10 renal): 84.1 µM | TGI (MDA-MB-231 breast): > 100 µM | TGI (LOX IMVI melanoma): > 100 µM | TGI (HT29 colon): > 100 µM | TGI (OVCAR-8 ovarian): > 100 µM | TGI (A549 NSCLC): > 100 µM | TGI (SR leukemia): > 100 µM | TGI (HOP-92 NSCLC): > 100 µM | TGI (SF-268 CNS): > 100 µM | TGI (SNB-75 CNS): > 100 µM | TGI (EKVX NSCLC): > 100 µM | TGI (HOP-62 NSCLC): > 100 µM | TGI (UACC-257 melanoma): 71.1 µM | TGI (KM12 colon): > 100 µM | TGI (SW-620 colon): > 100 µM | TGI (SNB-19 CNS): > 100 µM | TGI (HCT-116 colon): > 100 µM | TGI (NCI-H460 lung): 68.5 µM | TGI (MALME-3M melanoma): > 100 µM | TGI (M14 melanoma): > 100 µM | TGI (RPMI-8226 leukemia): > 100 µM | TGI (CAKI-1 renal): > 100 µM | TGI (SK-MEL-5 melanoma): > 100 µM | TGI (HS 578T breast): > 100 µM | TGI (U251 CNS): > 100 µM | TGI (NCI-H226 lung): 99.7 µM | TGI (MOLT-4 leukemia): > 100 µM | TGI (SF-295 CNS): > 100 µM | TGI (A498 renal): > 100 µM

— PubChem BioAssay (NCI)
